Measurements: ChEMBL document CHEMBL1201862, “PubChem BioAssay data set” (2004)
Values belong to the compound of their own block, whether it stands above or below them. Calls of active or inactive are those of the source.

Columns and labels:
[1] = biological target: T1, Ubiquitin-conjugating enzyme E2 N (Homo sapiens, UniProt P61088); assay type: functional;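 further: Dose-response confirmation in a TR-FRET assay detecting UBC13-driven polyubiquitin chain formation, inhibition measured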
T1 sequence (P61088 whole entry): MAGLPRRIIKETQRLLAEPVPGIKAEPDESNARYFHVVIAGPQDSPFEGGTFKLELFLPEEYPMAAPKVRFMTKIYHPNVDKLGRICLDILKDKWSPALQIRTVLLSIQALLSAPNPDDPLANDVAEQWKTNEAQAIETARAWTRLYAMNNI

[2] = HepG2 cell cytotoxicity, dose response, cytotoxicity control for Shn3 inhibitor project, CellTiter-Glo, cherry-picked (AID 624134); assay type: functional, cell-based
[3] = biological target: T2, Insulin-degrading enzyme (Homo sapiens, UniProt P14735); assay: activators of endogenous IDE in HEK cells, dose response, cell-based, fluorescence polarization (AID 588439); assay type: functional
T2 sequence (P14735 whole entry): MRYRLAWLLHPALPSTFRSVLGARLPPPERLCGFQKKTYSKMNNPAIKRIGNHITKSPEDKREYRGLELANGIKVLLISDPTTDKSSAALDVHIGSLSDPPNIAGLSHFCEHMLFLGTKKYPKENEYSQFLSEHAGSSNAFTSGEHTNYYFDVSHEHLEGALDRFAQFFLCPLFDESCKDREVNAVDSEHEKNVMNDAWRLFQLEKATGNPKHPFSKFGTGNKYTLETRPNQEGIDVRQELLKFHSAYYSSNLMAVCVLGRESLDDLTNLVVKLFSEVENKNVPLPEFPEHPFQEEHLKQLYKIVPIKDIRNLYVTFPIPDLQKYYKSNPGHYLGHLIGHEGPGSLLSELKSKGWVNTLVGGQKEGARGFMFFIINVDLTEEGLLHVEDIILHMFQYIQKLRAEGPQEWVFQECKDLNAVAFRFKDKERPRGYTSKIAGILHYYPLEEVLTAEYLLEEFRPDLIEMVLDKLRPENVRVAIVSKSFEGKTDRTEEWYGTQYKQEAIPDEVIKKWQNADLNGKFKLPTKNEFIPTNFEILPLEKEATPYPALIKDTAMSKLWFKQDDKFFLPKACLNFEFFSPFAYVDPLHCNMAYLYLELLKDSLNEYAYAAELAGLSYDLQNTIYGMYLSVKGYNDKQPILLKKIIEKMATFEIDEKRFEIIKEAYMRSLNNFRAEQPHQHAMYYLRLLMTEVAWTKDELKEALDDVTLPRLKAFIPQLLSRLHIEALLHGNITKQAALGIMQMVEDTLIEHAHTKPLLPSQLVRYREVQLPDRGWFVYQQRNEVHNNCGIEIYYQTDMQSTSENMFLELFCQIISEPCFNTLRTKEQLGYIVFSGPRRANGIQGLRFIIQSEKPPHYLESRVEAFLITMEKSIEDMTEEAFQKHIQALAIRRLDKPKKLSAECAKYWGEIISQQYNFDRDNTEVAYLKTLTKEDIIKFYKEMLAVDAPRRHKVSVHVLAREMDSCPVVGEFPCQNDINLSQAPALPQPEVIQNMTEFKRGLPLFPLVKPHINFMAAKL

[4] = biological target: T3, Mitochondrial peptide methionine sulfoxide reductase (Bos taurus, UniProt P54149); assay type: functional;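 further: absorbance read-out, biochemical high-throughput dose-response screen for MsrA inhibitors, confirmatory; recombinant bovine MsrA coupled to E. coli TrxB with NADPH and selenocystamine; potency is for inhibitors of MsrA activity on DMSO substrate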
T3 sequence (P54149 whole entry): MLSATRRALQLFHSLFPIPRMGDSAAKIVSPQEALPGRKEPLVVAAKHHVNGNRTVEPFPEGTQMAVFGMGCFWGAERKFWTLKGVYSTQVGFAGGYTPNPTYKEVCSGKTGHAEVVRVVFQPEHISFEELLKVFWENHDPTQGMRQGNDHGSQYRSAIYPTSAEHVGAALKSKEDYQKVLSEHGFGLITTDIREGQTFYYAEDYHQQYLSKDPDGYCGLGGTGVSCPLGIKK

[5] = biological target: LIM domain kinase 1 (Homo sapiens, UniProt P53667); assay: Navigating the Kinome. Panel member name: LIMK1; assay type: functional
[6] = biological target: Dual specificity protein kinase CLK4 (Homo sapiens, UniProt Q9HAZ1); assay type: functional
[7] = biological target: Testis-specific serine/threonine-protein kinase 1 (Homo sapiens, UniProt Q9BXA7); assay type: functional
[8] = biological target: Mitogen-activated protein kinase kinase kinase kinase 2 (Homo sapiens, UniProt Q12851); assay type: functional;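 further: measured as one member of a kinome-wide kinase panel, with MAP4K2 as the panel entry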
[9] = biological target: Mast/stem cell growth factor receptor Kit (Homo sapiens, UniProt P10721); assay type: functional;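 further: KIT entry within a kinase panel assay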
[10] = biological target: Serine/threonine-protein kinase pim-1 (Homo sapiens, UniProt P11309); assay type: functional
[11] = biological target: Proto-oncogene tyrosine-protein kinase Src (Homo sapiens, UniProt P12931); assay type: functional;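 further: SRC entry within a kinome-wide kinase profiling panel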
[12] = biological target: Serine/threonine-protein kinase DCLK1 (Homo sapiens, UniProt O15075); assay type: functional;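 further: affinity for DCLK1 (listed as DCAMKL1) measured as one member of a kinome-wide kinase profiling panel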
[13] = biological target: SRSF protein kinase 1 (Homo sapiens, UniProt Q96SB4); assay type: functional;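 further: measured as one member of a kinome-wide kinase profiling panel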
[14] = biological target: Lymphokine-activated killer T-cell-originated protein kinase (Homo sapiens, UniProt Q96KB5); assay type: functional;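 further: value comes from a kinase panel screen in which TOPK was one of the panel members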
[15] = biological target: Ribosomal protein S6 kinase alpha-5 (Homo sapiens, UniProt O75582); assay type: functional
[16] = biological target: Serine/threonine-protein kinase D3 (Homo sapiens, UniProt O94806); assay type: functional;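 further: determined within a kinase panel screen, with PRKCN as the panel member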
[17] = biological target: Non-receptor tyrosine-protein kinase TYK2 (Homo sapiens, UniProt P29597); assay type: functional
[18] = biological target: cAMP-dependent protein kinase catalytic subunit PRKX (Homo sapiens, UniProt P51817); assay type: functional
[19] = biological target: Aurora kinase B (Homo sapiens, UniProt Q96GD4); assay type: functional
[20] = biological target: Serine/threonine-protein kinase PAK 1 (Homo sapiens, UniProt Q13153); assay type: functional
[21] = biological target: Death-associated protein kinase 3 (Homo sapiens, UniProt O43293); assay type: functional;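 further: measured as one member of a kinome-wide profiling panel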
[22] = biological target: cAMP-dependent protein kinase catalytic subunit alpha (Homo sapiens, UniProt P17612); assay type: functional
[23] = biological target: Tyrosine-protein kinase ITK/TSK (Homo sapiens, UniProt Q08881); assay type: functional;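 further: affinity for ITK measured as one member of a broad kinase panel profiling binding across the kinome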
[24] = biological target: Phosphorylase b kinase gamma catalytic chain, liver/testis isoform (Homo sapiens, UniProt P15735); assay type: functional;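 further: PHKG2 measured as one member of a kinome-wide kinase panel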
[25] = tested on: BJ; assay: cytotoxicity toward Ras-transformed BJeLR fibroblasts, dose response, cell-based, alamar blue fluorescence, cherrypicked samples (AID 2631); assay type: functional; conditions: Homo sapiens;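 further: confirmatory dose-response assay in RAS-dependent BJ fibroblasts engineered with TERT, LT and ST, with cytotoxicity read by fluorescence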
[26] = tested on: BJ; assay: cytotoxicity toward BJ-TERT-LT-ST fibroblasts, dose response, cell-based, RAS-independent, luminescence (AID 1935); assay type: functional; conditions: Homo sapiens;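 further: BJ fibroblasts immortalized with TERT plus LT and ST oncogenes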
[27] = Luminescence Cell-Based Dose Confirmation HTS to Identify Inhibitors of Platelet Dense Granule Release. [Related pubchem assays: 1663 (Primary HTS), 1678 (Summary of Project)]; assay type: functional

Non-receptor tyrosine-protein kinase TYK2, sequence (P29597 whole entry): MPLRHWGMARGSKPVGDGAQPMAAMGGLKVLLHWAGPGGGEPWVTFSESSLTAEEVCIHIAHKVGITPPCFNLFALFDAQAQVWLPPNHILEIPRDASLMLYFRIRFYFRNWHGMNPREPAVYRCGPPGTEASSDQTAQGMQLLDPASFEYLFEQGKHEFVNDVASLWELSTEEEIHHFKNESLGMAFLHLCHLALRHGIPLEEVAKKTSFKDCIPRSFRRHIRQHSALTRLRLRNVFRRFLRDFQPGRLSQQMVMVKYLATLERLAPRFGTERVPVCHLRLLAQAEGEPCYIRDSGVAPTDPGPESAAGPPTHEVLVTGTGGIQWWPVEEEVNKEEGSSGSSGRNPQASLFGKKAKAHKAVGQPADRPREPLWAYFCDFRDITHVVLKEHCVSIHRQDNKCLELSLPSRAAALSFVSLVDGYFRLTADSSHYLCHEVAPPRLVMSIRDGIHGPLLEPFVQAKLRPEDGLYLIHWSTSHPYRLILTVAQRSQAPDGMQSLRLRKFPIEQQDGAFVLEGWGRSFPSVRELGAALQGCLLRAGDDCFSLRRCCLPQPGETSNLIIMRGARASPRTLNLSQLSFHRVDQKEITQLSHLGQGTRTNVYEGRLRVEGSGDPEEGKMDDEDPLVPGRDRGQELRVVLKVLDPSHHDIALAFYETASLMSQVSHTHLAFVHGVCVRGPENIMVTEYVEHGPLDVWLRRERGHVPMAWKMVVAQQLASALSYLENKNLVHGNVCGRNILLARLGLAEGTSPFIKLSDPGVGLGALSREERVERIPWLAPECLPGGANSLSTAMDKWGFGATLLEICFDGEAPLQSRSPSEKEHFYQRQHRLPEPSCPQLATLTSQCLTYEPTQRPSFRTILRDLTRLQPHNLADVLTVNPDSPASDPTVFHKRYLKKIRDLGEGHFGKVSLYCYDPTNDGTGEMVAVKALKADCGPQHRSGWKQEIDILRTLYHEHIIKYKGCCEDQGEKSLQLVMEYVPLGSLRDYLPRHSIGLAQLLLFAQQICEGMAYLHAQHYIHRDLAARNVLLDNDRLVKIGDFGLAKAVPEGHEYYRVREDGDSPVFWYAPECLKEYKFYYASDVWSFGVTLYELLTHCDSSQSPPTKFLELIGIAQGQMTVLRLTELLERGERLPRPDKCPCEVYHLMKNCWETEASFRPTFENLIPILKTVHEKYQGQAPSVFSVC
SRSF protein kinase 1, sequence (Q96SB4 whole entry): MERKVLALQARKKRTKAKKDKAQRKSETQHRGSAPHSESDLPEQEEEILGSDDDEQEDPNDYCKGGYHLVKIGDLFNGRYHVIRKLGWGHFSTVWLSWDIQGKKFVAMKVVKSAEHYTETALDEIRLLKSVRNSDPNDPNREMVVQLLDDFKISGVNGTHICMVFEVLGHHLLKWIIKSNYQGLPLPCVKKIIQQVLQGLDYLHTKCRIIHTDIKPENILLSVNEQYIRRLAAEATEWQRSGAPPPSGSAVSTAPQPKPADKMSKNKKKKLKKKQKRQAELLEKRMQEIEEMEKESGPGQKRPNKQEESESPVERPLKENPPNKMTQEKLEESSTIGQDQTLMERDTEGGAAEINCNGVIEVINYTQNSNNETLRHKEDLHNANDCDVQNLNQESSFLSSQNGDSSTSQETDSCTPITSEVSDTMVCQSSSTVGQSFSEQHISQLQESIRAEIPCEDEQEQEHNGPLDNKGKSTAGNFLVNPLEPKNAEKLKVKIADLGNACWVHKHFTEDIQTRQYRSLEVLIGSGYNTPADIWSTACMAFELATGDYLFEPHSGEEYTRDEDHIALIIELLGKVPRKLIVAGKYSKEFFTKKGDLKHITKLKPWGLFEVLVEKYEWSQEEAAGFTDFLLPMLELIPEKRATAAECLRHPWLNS
Mitogen-activated protein kinase kinase kinase kinase 2, sequence (Q12851 whole entry): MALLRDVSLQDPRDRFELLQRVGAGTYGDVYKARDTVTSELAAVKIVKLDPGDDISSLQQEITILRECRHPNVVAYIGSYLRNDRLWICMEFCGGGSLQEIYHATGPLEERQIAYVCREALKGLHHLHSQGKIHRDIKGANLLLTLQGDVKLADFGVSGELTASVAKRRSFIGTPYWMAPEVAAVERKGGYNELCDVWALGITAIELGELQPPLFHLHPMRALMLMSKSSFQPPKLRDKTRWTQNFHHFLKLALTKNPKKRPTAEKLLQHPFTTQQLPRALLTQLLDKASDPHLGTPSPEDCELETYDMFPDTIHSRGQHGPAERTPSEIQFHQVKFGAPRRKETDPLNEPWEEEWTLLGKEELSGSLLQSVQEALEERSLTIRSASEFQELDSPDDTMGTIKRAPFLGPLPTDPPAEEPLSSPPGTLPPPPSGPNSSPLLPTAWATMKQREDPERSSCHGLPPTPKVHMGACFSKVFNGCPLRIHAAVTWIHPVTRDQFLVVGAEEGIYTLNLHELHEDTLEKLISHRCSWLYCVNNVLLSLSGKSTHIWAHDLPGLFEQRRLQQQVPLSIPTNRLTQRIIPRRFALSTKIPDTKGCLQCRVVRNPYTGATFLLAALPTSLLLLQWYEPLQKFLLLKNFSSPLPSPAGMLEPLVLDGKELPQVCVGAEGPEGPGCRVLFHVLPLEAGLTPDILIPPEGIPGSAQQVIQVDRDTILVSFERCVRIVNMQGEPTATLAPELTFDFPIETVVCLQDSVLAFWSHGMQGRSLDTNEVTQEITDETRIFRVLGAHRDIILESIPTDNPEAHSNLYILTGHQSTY
Serine/threonine-protein kinase DCLK1, sequence (O15075 whole entry): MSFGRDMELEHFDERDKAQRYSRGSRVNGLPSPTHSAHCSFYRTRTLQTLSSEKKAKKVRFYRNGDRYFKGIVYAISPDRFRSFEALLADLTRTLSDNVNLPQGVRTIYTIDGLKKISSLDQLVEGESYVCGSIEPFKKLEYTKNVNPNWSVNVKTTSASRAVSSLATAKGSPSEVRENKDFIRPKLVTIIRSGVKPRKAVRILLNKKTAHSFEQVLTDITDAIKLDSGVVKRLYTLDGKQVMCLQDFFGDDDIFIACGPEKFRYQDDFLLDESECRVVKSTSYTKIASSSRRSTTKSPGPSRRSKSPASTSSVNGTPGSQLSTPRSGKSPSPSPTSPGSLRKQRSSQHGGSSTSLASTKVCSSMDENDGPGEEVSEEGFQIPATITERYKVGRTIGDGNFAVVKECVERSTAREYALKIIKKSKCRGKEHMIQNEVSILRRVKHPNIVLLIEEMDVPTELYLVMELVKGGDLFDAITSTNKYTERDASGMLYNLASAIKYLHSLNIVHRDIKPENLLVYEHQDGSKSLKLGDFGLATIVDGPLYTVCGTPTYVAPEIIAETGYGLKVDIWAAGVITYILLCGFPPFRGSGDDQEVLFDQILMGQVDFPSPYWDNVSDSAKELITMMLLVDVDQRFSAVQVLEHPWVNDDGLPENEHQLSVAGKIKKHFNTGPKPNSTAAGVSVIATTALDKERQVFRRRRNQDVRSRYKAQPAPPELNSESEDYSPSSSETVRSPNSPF
Death-associated protein kinase 3, sequence (O43293 whole entry): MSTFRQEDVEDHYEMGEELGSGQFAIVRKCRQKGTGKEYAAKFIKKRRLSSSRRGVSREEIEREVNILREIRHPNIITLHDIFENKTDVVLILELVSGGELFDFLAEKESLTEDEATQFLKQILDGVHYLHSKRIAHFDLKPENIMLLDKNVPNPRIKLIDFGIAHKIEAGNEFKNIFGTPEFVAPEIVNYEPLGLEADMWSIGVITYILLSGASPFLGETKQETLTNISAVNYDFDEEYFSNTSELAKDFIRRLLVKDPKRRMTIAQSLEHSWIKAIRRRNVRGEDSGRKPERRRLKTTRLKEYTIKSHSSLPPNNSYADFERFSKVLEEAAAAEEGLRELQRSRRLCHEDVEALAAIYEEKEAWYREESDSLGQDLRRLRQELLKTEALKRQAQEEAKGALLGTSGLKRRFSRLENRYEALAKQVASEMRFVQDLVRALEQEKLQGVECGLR
Serine/threonine-protein kinase D3, sequence (O94806 whole entry): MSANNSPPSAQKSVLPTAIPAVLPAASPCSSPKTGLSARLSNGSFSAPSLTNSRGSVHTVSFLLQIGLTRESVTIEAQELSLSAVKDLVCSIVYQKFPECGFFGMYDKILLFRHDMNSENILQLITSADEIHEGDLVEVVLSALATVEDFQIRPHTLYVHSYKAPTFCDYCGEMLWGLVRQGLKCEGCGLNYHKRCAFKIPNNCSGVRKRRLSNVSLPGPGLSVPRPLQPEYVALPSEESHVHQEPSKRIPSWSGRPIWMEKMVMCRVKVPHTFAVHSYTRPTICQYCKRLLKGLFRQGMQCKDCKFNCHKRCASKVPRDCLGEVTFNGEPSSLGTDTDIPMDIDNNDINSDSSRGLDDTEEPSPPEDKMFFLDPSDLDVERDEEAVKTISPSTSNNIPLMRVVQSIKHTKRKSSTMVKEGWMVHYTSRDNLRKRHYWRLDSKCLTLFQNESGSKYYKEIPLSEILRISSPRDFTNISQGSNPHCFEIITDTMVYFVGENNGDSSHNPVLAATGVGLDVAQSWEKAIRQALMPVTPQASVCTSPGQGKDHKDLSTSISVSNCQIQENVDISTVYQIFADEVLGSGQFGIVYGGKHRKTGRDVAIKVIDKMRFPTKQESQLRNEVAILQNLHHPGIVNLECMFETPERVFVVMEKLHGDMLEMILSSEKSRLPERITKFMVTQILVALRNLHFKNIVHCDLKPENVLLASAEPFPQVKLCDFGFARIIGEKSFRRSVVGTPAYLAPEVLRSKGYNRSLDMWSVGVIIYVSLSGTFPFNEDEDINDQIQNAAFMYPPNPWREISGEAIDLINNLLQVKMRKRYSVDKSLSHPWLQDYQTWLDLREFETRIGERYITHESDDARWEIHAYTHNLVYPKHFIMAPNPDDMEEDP
Serine/threonine-protein kinase pim-1, sequence (P11309 whole entry): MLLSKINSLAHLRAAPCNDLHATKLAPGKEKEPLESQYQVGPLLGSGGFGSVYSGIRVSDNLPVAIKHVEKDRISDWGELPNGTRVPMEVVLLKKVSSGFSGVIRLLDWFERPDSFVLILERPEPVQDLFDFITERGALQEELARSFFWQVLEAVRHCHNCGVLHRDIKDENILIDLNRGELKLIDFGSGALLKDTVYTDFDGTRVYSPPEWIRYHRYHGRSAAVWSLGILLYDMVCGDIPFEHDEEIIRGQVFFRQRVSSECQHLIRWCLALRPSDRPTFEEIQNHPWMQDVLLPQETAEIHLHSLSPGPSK

SMILES: CC[C@@H](C)[C@H](CNC)NC[C@@H](Cc1cccc2ccccc12)NCCc1cccc(C(F)(F)F)c1
IC50 [1]: > 20 µM (inactive)
AC50 [2]: 9.13 µM (active)
EC50 [3]: 6.41 µM (active)

SMILES: Cc1ccc(S(=O)(=O)/N=C2\C=C(Nc3cccc(C(=O)O)c3)C(=O)c3ccccc32)cc1
IC50 [4]: 42.4 µM (inactive)

Ki [5]: 0.126 µM (active)
Ki [6]: 3.98 µM (active)
Ki [7]: > 1.58 µM (inactive)
Ki [8]: > 6.31 µM (inactive)
Ki [9]: > 1.26 µM (inactive)
Ki [10]: > 10 µM (inactive)
Ki [11]: > 2 µM (inactive)
Ki [12]: > 10 µM (inactive)
Ki [13]: > 7.94 µM (inactive)
Ki [15]: > 2 µM (inactive)
Ki [16]: 5.01 µM (active)
Ki [17]: > 2 µM (inactive)
Ki [18]: > 1.58 µM (inactive)
Ki [19]: > 6.31 µM (inactive)
Ki [20]: > 10 µM (inactive)
Ki [22]: > 7.94 µM (inactive)
Ki [23]: > 1.58 µM (inactive)
Ki [24]: > 5.01 µM (inactive)
SMILES: CC(C)(CO)CNc1nccc(-c2c(-c3ccc(F)cc3)nc3c(CC4CC4)nccn23)n1
Ki [14]: 0.316 µM (active)
Ki [21]: > 1.26 µM (inactive)

SMILES: O=[N+]([O-])c1c(Nc2ccccn2)cc(Cl)c2nonc12
EC50 [25]: 2.43 µM (active)
EC50 [26]: 3.95 µM (inconclusive)
EC50 [27]: 3.55 µM (active)
